Here are results for 2 compounds from publication PMC7828231, “Delphinidin Increases the Sensitivity of Ovarian Cancer Cell Lines to 3-bromopyruvate” (International Journal of Molecular Sciences, 2021).

Where two headings read alike, the source gives them in different places.

One may read the IC50 as the midpoint of a concentration-inhibition curve.

The test system of data set [1] is MRC-5 fibroblasts. As to the kind of experiment: Cytotoxicity, Neutral Red survival assay. Format: cell-based, human. The procedure: (§1) SKOV3 and PEO1 cells were seeded in a clear 96-well plate at a density of 1 × 10^4 cells/well in 100-µL culture medium. MRC-5 cells were seeded at a density of 7.5 × 10^3/well and allowed to attach for 24 h at 37 °C. After incubation, the cells were treated with delphinidin chloride in a concentration range of 10–100 µM and 3-BP at concentrations between 5–25 µM for PEO1 and 10–50 µM for MRC-5 and SKOV3. Nontreated cells were used as a control. Stock solutions of tested substances were prepared in DMSO and their working solutions in culture media. The DMSO concentration was adjusted to 0.2% in all samples, which had no significant effect on the treated cells. After 24-h exposure time, the medium was removed and replaced with 100 µL of […] neutral red solution, and the cells were incubated at 37 °C for 1 h. Then, the cells were washed with PBS; fixed with 100 µL/well of 50% ethanol, 49% H2O and 1% glacial acetic acid and shaken (700 rpm) at room temperature for 20 min. Absorbance was measured at 540 nm against 620 nm.

In data set [2] the test system is PEO1 cells. Kind of data set: Cytotoxicity, Neutral Red survival assay. Format: cell-based, human. The following applies: read-out: IC50 of cell survival. The procedure:
as §1

Data set [3] has as its system SKOV3 cells. Kind of data set: Cytotoxicity, Neutral Red survival assay. The data set is classed as cell-based, human. The note with it: read-out: IC50 of cell survival. The procedure: as §1
Data set [4] has as its system MRC-5 fibroblasts. Kind of data set: ATP level (CellTiter-Glo). The data set is classed as cell-based, human. The note with it: 25-µM D, 40 µM 3-BP, 24 h. The procedure: (§2) To determine the ATP level in the cells, the CellTiter-Glo® Luminescent Cell Viability Assay (Promega) was used. This method is based on the ATP-dependent conversion of luciferin to the luminescent oxyluciferin. Briefly, cells were seeded in a white/clear bottom 96-well plate with a density of 1 × 10^4/well (SKOV3 and PEO1) or 7.5 × 10^3/well (MRC-5). After 24-h incubation, the cells were treated with 25-µM D, a IC50 concentration of 3-BP (SKOV3 and MRC-5: 40 µM and PEO1: 20 µM) and both compounds simultaneously. The ATP level was determined after 24-h exposure to the tested compounds. The plate was equilibrated at room temperature for approximately 25 minutes. Next, 100 µL of the CellTiter-Glo® Reagent was added to each well, and the plate was shaken for 2 minutes. Then, the plate was left at room temperature for 10 minutes, and the luminescence was measured in a Spark multimode microplate reader (Tecan Group LTD., Männedorf, Switzerland).
Background: In ATP-based viability assays light output follows the ATP content of the culture.

The test system of data set [5] is PEO1 cells. As to the kind of experiment: ATP level (CellTiter-Glo). The data set is classed as cell-based, human. The note with it: 25-µM D, 20 µM 3-BP, 24 h. The procedure:
as §2

Data set [6] has as its system SKOV3 cells. Kind of data set: ATP level (CellTiter-Glo). The data set is classed as cell-based, human. The note with it: 25-µM D, 40 µM 3-BP, 24 h. The procedure: as §2
In data set [7] the test system is PEO1 cells. As to the kind of experiment: Mitochondrial membrane potential (JC-1). The data set is classed as cell-based, human. The note with it: 25-µM D, 20 µM 3-BP, 24 h. On the procedure:
(§3) Changes of mitochondrial membrane potential was evaluated using 5,5′,6,6′-tetrachloro-1,1′,3,3′-tetraethyl-imidacarbocyanine iodide, 5,5′,6,6′-tetrachloro-1,1′,3,3′-tetraethylbenzimidazolocarbocyanine iodide (JC-1) with a Mitochondrial Membrane Potential Assay Kit.
(§4) The cells were seeded into black plates and treated as mentioned before. After 24h incubation with the studied compounds, the medium was discharged and replaced with 100x diluted JC-1 reagent in complete culture medium and incubated for 30 min in a CO2 incubator. Next, the plate was centrifuged at 4000 rpm for 5 min and afterwards the reagent was aspirated, and cells were washed with 150 μL/well Cell-Based Assay Buffer and centrifuged once more. After removing the supernatant, 100 μL/well of the new buffer was added. Fluorescence was measured at 540/570 nm (red fluorescence) and 485/535 nm (green fluorescence). The results were presented as a ratio of green to red fluorescence intensity ratio.

The subject of data set [8] is SKOV3 cells. Kind of data set: Mitochondrial membrane potential (JC-1). The data set is classed as cell-based, human. The following applies: 25-µM D, 40 µM 3-BP, 24 h. On the procedure:
as §3, §4

Data set [9] relates to PEO1 cells. As to the kind of experiment: Mitochondrial mass (NAO). The note with it: 25-µM D, 20 µM 3-BP, 24 h. Format: cell-based, human. The procedure:
(§5) Cells were seeded at the density of 2 × 10^5 cells/well onto a 24-well plate and cultured as stated before. Following 24-hour exposure to the studied compounds, the cells were trypsinized, counted and transferred to separate Eppendorf tubes, and then centrifuged for 6 minutes at 3000 rpm. Subsequently the supernatant was discharged and the cells were washed with 1 mL of PBS and centrifuged again. Afterwards, 1 mL of 10 μM NAO solution in PBS was added into the samples, and incubated for 10 min in a CO2 incubator at 37 °C. Next, the cells were centrifuged and the pellet was washed with PBS, and resuspended in 300 μL of PBS. Each sample was transferred into a 96-well black plate (100 μL/well; 3 repetitions). Fluorescence was measured at 435/535 nm. The results were determined in relation to the cell count.

The subject of data set [10] is SKOV3 cells. Kind of data set: Mitochondrial mass (NAO). The data set is classed as cell-based, human. The following applies: 25-µM D, 40 µM 3-BP, 24 h. On the procedure:
as §5

Data set [11] has as its system SKOV3 cells. Kind of data set: Apoptosis and necrosis assay (RealTime-Glo Annexin V). Format: cell-based, human. The note with it: after 24 h. The procedure: The levels of apoptosis and necrosis were assayed using the RealTime-Glo™ Annexin V Apoptosis and Necrosis Assay. Cells were seeded into a white 96-well plate with optical bottom, cultured and treated adequately, as stated above. After 24 h, 100 μL of the freshly prepared reagent was added to each well according to the manufacturer’s protocols. The fluorescence and luminescence were measured according to the protocols.

Another data set relates to NHF cells. On the set-up: method as in PMID 15016660. The note with it: 100–200 µM; cited from earlier work.
For another data set, the system named is Caco-2 cells. Also on record: method as in PMID 15016660. The following applies: Caco-2, 100–200 µM; cited from earlier work.
Another data set concerns HCT-116 cells. On the set-up: method as in PMID 15680311. The following applies: HCT-116, 50–200 µM; cited from earlier work.
Another data set deals with HCT116 cells. On the set-up: method as in PMID 18729103. The note with it: cited from earlier work.
The target of another data set is glyoxalase I. Also on record: method as in PMID 20801663. The note with it: read-out: IC50 for glyoxalase I inhibition; cited from earlier work.
Data set [12] concerns LoVo cell subline resistant to adriamycin. On the set-up: method as in PMID 20494645. The note with it: cited from earlier work.
Details of data set [13]: method as in PMID 17729219. The note with it: DMEM medium, after 30 min; cited from earlier work.

For `Oc1cc(O)c2cc(O)c(-c3cc(O)c(O)c(O)c3)[o+]c2c1` [Delphinidin chloride, 3,3′,4′,5,5′,7-hexahydroxyflavylium], the “survival / viability of MRC-5 fibroblasts” value with MRC-5 fibroblasts [1] (up to 100 µM) is listed as “did not affect”. For the same compound, the IC50 in the data set on PEO1 cells [2] (Homo sapiens, PEO1, 24 h, PEO1, 24-h exposure, Neutral Red, ND = no reduction of survival in the concentration range studied) was less than 100 µM; in the data set with PEO1 cells [2] (PEO1, 24-h exposure, Neutral Red, ND = no reduction of survival in the concentration range studied) it was 71.5 µM; in the data set on SKOV3 cells [3] (Homo sapiens, SK-OV-3, 24 h, SKOV3, 24-h exposure, Neutral Red, ND = no reduction of survival in the concentration range studied), less than 100 µM; in the data set on SKOV3 cells [3] (SKOV3, 24-h exposure, Neutral Red, ND = no reduction of survival in the concentration range studied) it was 57.5 µM; with HCT116 cells, 110 µM; at glyoxalase I, 1.9 µM. The 50% inhibitory concentration (IC50) in [12] is 16 ± 2 µM. The ATP content entry in the data set with MRC-5 fibroblasts [4] is recorded as “not affected”; with PEO1 cells [5], “did not change”; in the data set with SKOV3 cells [6], “neither 3-BP nor D affected”. Moreover, the “mitochondrial potential (JC-1 fluorescence ratio)” value is on record as “decreased” with PEO1 cells [7] and “increased” with SKOV3 cells [8]. The mitochondrial mass entry with PEO1 cells [9] was “increased”; in the data set on SKOV3 cells [10], “decreased”. The induction of apoptosis entry in the data set with SKOV3 cells [11] was “induced apoptosis”. In addition, the viability result in the data set on NHF cells is recorded as “decreased the viability”; with Caco-2 cells, “decreased the viability”; in the data set on HCT-116 cells, “did not affect significantly the viability”. In addition, the “stability in cell culture medium” value in data set [13] is recorded as “not detectable”.
On to `O=C(O)C(=O)CBr` [3-BP, 3-bromopyruvic acid], for which the “survival of MRC-5 fibroblasts” value in the data set on MRC-5 fibroblasts [1] (up to a concentration of 50 µM) is “not compromised”. Further, the IC50 in the data set on PEO1 cells [2] (Homo sapiens, PEO1, 24 h) is 18.7 µM; in the data set on SKOV3 cells [3] (Homo sapiens, SK-OV-3, 24 h), 40.5 µM. Besides, the ATP content entry with MRC-5 fibroblasts [4] is on record as “not affected”; with PEO1 cells [5] it was “decrease”; in the data set with SKOV3 cells [6] it was “neither 3-BP nor D affected”. Further, the “mitochondrial potential (JC-1 fluorescence ratio)” value in the data set on PEO1 cells [7] is reported as “decreased”; with SKOV3 cells [8] it was “increased”. Moreover, the mitochondrial mass result in the data set with PEO1 cells [9] and with SKOV3 cells [10] was “increased” each time.
